# Experiments:
# giant foxtail = test: Test B pre/postemergence giant foxtail; format: in vivo, Setaria faberii
# Outline: (§1)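 Herbicidal effect was estimated by eye on a ten-point control scale after plants spent twelve to sixteen days in a greenhouse following soil or foliar treatment. Foliar sprays targeted plants at one to four leaves; all doses were formulated in a non-phytotoxic solvent with surfactant.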
# smallflower flatsedge = test: Test B flood test smallflower flatsedge; format: in vivo, Cyperus difformis
# Outline: (§2)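 Read-out is a visual response score from 0 (no effect) to 10 (complete control), assigned by comparison with untreated controls. Treatment was applied at the 2-leaf stage, and plants stayed in the greenhouse for twelve to sixteen days before scoring.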
# morningglory = test: Test B pre/postemergence morningglory; format: in vivo, Ipomoea hederacea
# Outline: as §1
# pigweed = test: Test B pre/postemergence pigweed; format: in vivo, Amaranthus retroflexus
# Outline: as §1
# blackgrass = test: Test B pre/postemergence blackgrass; format: in vivo, Alopecurus myosuroides
# Outline: as §1
# cocklebur = test: Test B pre/postemergence cocklebur; format: in vivo, Xanthium strumarium
# Outline: as §1
# soybean = test: Test B pre/postemergence soybean; format: in vivo, Glycine max
# Outline: as §1
# bedstraw = test: Test B pre/postemergence bedstraw; format: in vivo, Galium aparine
# Outline: as §1
# rape = test: Test B pre/postemergence rape; format: in vivo, Brassica napus
# Outline: as §1
# velvetleaf = test: Test B pre/postemergence velvetleaf; format: in vivo, Abutilon theophrasti; conditions: for Plant response rating, Velvetleaf: Rate 250 g/ha
# Outline: as §1
# bamyardgrass = test: Test B flood test barnyardgrass; format: in vivo, Echinochloa crus-galli
# Outline: as §2
# corn = test: Test B pre/postemergence corn; format: in vivo, Zea mays
# Outline: as §1
# duck salad = test: Test B flood test duck salad; format: in vivo, Heteranthera limosa
# Outline: as §2
# sugar beet = test: Test B pre/postemergence sugar beet; format: in vivo, Beta vulgaris; conditions: for Plant response rating, Sugarbeets: Rate 250 g/ha
# Outline: as §1
# surinam grass = test: Test B pre/postemergence surinam grass; format: in vivo, Brachiaria decumbens
# Outline: as §1
# purple nutsedge = test: Test B pre/postemergence purple nutsedge; format: in vivo, Cyperus rotundus
# Outline: as §1
# [1] = Postemergence, Rate 125 g/ha, scale of 0 to 10 where 0 is no effect and 10 is complete control
# [2] = Postemergence, Rate 250 g/ha, scale 0 to 10, 0 no effect, 10 complete control
# [3] = Preemergence, Rate 62 g/ha, scale 0 to 10 (0 no effect, 10 complete control)
# [4] = Preemergence, Rate 125 g/ha, scale 0 to 10 (0 no effect, 10 complete control)
# [5] = Preemergence, Rate 250 g/ha, scale of 0 to 10 where 0 is no effect and 10 is complete control
# [6] = Preemergence, Rate 500 g/ha, scale 0 to 10 (0 no effect, 10 complete control)
# [7] = Rate 62 g/ha, Postemergence, scale of 0 to 10 where 0 is no effect and 10 is complete control
# [8] = Rate 500 g/ha, Postemergence, scale 0 to 10, 0 no effect, 10 complete control
# [9] = Postemergence (flood test species), Rate 125 g/ha, scale of 0 to 10 where 0 is no effect and 10 is complete control
# [10] = Rate 62 g/ha, Postemergence section, flood test species, scale of 0 to 10 where 0 is no effect and 10 is complete control
# [11] = Rate 250 g/ha, headed Pre-emergence (flood test species), scale 0 to 10 (0 no effect, 10 complete control)
# [12] = Rate 500 g/ha, headed Pre-emergence (flood test species), scale 0 to 10 (0 no effect, 10 complete control)
# [13] = Rate 500 g/ha, listed under Postemergence (flood test species), scale 0 to 10, 0 no effect, 10 complete control
# [14] = Rate 2000 g/ha, Pre-emergence (as headed), scale 0 to 10
# [15] = Rate 250 g/ha, Postemergence, scale 0 to 10, 0 is no effect, 10 is complete control
# [16] = Postemergence, Rate 62 g/ha, scale 0 to 10, 0 is no effect, 10 is complete control
# [17] = Rate 125 g/ha, Postemergence, scale 0 to 10, 0 no effect, 10 complete control
# [18] = Preemergence, Rate 125 g/ha, 0 is no effect, 10 is complete control
# [19] = Preemergence, scale of 0 to 10 where 0 is no effect and 10 is complete control
# [20] = Postemergence, scale 0 to 10, 0 is no effect, 10 is complete control
# [21] = Rate 1000 g/ha, Pre-emergence (as headed), scale 0 to 10
# [22] = flood test, listed under Postemergence, Rate 250 g/ha, scale 0 to 10, 0 no effect, 10 complete control
compound,measurement,setting,value
CCn1c(=O)on(C(=O)N(c2ccccc2)C(C)C)c1=O [Compound 117],Giant foxtail plant response rating,giant foxtail; [1],9
same,Giant foxtail plant response rating,giant foxtail; [2],9
same,Giant foxtail plant response rating,giant foxtail; [3],10
same,"Plant response rating, Giant foxtail",giant foxtail; [4],10
same,"Plant response rating, Giant foxtail",giant foxtail; [5],10
same,Giant foxtail plant response rating,giant foxtail; [6],10
same,Giant foxtail plant response rating,giant foxtail; [7],9
same,Giant foxtail plant response rating,giant foxtail; [8],9
same,S. Flatsedge plant response rating,smallflower flatsedge; [9],0
same,S. Flatsedge plant response rating,"smallflower flatsedge; Pre-emergence, Rate 1000 g/ha, scale 0 to 10 (0 no effect, 10 complete control)",0
same,S. Flatsedge plant response rating,smallflower flatsedge; [10],0
same,"Plant response rating, S. Flatsedge","smallflower flatsedge; Rate 250 g/ha, Postemergence (flood test), scale 0 to 10, 0 is no effect, 10 is complete control",0
same,S. Flatsedge plant response rating,smallflower flatsedge; [11],0
same,"Plant response rating, S. Flatsedge",smallflower flatsedge; [12],0
same,S. Flatsedge plant response rating,smallflower flatsedge; [13],0
same,S. Flatsedge plant response rating,smallflower flatsedge; [14],4
same,Morningglory plant response rating,morningglory; [1],7
same,Morningglory plant response rating,morningglory; [2],7
same,Morningglory plant response rating,morningglory; [3],0
same,"Plant response rating, Morningglory",morningglory; [4],0
same,"Plant response rating, Morningglory",morningglory; [5],2
same,Morningglory plant response rating,morningglory; [6],6
same,Morningglory plant response rating,morningglory; [7],2
same,Morningglory plant response rating,morningglory; [8],10
same,Redroot pigweed plant response rating,pigweed; [1],0
same,Redroot pigweed plant response rating,pigweed; [3],9
same,"Plant response rating, Redroot pigweed",pigweed; [4],10
same,"Plant response rating, Redroot pigweed",pigweed; [5],10
same,Redroot pigweed plant response rating,pigweed; [6],10
same,Redroot pigweed plant response rating,pigweed; [7],0
same,"Plant response rating, Redroot pigweed",pigweed; [15],0
same,Redroot pigweed plant response rating,pigweed; [8],6
same,Blackgrass plant response rating,blackgrass; [1],9
same,Blackgrass plant response rating,blackgrass; [2],9
same,Blackgrass plant response rating,blackgrass; [3],8
same,"Plant response rating, Blackgrass",blackgrass; [4],8
same,"Plant response rating, Blackgrass",blackgrass; [5],10
same,Blackgrass plant response rating,blackgrass; [6],10
same,Blackgrass plant response rating,blackgrass; [7],8
same,Blackgrass plant response rating,blackgrass; [8],9
same,Cocklebur plant response rating,cocklebur; [1],0
same,Cocklebur plant response rating,cocklebur; [2],0
same,Cocklebur plant response rating,cocklebur; [3],0
same,"Plant response rating, Cocklebur",cocklebur; [4],0
same,"Plant response rating, Cocklebur",cocklebur; [5],0
same,Cocklebur plant response rating,cocklebur; [6],0
same,Cocklebur plant response rating,cocklebur; [7],0
same,Cocklebur plant response rating,cocklebur; [8],1
same,Soybean plant response rating,soybean; [1],5
same,Soybean plant response rating,soybean; [3],0
same,"Plant response rating, Soybean",soybean; [4],8
same,"Plant response rating, Soybean",soybean; [5],8
same,Soybean plant response rating,soybean; [6],9
same,Soybean plant response rating,soybean; [7],2
same,"Plant response rating, Soybean",soybean; [15],5
same,Soybean plant response rating,soybean; [8],7
same,Bedstraw plant response rating,bedstraw; [16],0
same,Bedstraw plant response rating,bedstraw; [2],2
same,Bedstraw plant response rating,bedstraw; [3],0
same,"Plant response rating, Bedstraw",bedstraw; [4],0
same,"Plant response rating, Bedstraw",bedstraw; [5],0
same,Bedstraw plant response rating,bedstraw; [6],0
same,Bedstraw plant response rating,bedstraw; [17],0
same,Rape plant response rating,rape; [1],0
same,Rape plant response rating,rape; [2],2
same,Rape plant response rating,rape; [3],6
same,"Plant response rating, Rape",rape; [4],10
same,"Plant response rating, Rape",rape; [5],10
same,Rape plant response rating,rape; [6],10
same,Rape plant response rating,rape; [7],0
same,Rape plant response rating,rape; [8],6
same,Velvetleaf plant response rating,velvetleaf; [1],3
same,Velvetleaf plant response rating,velvetleaf; [3],6
same,Velvetleaf plant response rating (0 to 10 scale),velvetleaf; [18],8
same,"Plant response rating, Velvetleaf",velvetleaf; [19],10
same,Velvetleaf plant response rating,velvetleaf; [6],10
same,Velvetleaf plant response rating,velvetleaf; [7],0
same,"Plant response rating, Velvetleaf",velvetleaf; [20],6
same,Velvetleaf plant response rating,velvetleaf; [8],8
same,Barnyardgrass plant response rating,bamyardgrass; [16],0
same,Barnyardgrass plant response rating,"bamyardgrass; Rate 125 g/ha, Postemergence section (flood test species), scale 0 to 10, 0 no effect, 10 complete control",0
same,Barnyardgrass plant response rating,bamyardgrass; [11],0
same,"Plant response rating, Barnyardgrass",bamyardgrass; [12],0
same,Barnyardgrass plant response rating,bamyardgrass; [13],3
same,Barnyardgrass plant response rating,bamyardgrass; [21],0
same,Barnyardgrass plant response rating,"bamyardgrass; Rate 2000 g/ha, Pre-emergence (as headed), scale 0 to 10, 0 no effect, 10 complete control",3
same,Barnyardgrass plant response rating,bamyardgrass; [22],2
same,Corn plant response rating,corn; [1],5
same,Corn plant response rating,corn; [2],6
same,Corn plant response rating,corn; [3],0
same,"Plant response rating, Corn",corn; [4],2
same,"Plant response rating, Corn",corn; [5],7
same,Corn plant response rating,corn; [6],9
same,Corn plant response rating,corn; [7],0
same,Corn plant response rating,corn; [8],7
same,Ducksalad plant response rating,duck salad; [9],0
same,Ducksalad plant response rating,duck salad; [10],0
same,Ducksalad plant response rating,duck salad; [11],0
same,"Plant response rating, Ducksalad",duck salad; [12],0
same,Ducksalad plant response rating,duck salad; [13],0
same,Ducksalad plant response rating,duck salad; [21],0
same,Ducksalad plant response rating,duck salad; [14],1
same,Ducksalad plant response rating,duck salad; [22],0
same,Sugarbeets plant response rating,sugar beet; [1],0
same,Sugarbeets plant response rating,sugar beet; [3],0
same,Sugarbeets plant response rating (0 to 10 scale),sugar beet; [18],8
same,"Plant response rating, Sugarbeets",sugar beet; [19],9
same,Sugarbeets plant response rating,sugar beet; [6],10
same,Sugarbeets plant response rating,sugar beet; [7],0
same,"Plant response rating, Sugarbeets",sugar beet; [20],3
same,Sugarbeets plant response rating,sugar beet; [8],7
same,B. signalgrass plant response rating,surinam grass; [16],6
same,B. signalgrass plant response rating,surinam grass; [2],9
same,B. signalgrass plant response rating,surinam grass; [3],6
same,"Plant response rating, B. signalgrass",surinam grass; [4],9
same,"Plant response rating, B. signalgrass",surinam grass; [5],9
same,B. signalgrass plant response rating,surinam grass; [6],10
same,B. signalgrass plant response rating,surinam grass; [17],8
same,B. signalgrass plant response rating,"surinam grass; Rate 500 g/ha, Postemergence, scale of 0 to 10 where 0 is no effect and 10 is complete control",9
same,Nutsedge plant response rating,purple nutsedge; [1],7
same,Nutsedge plant response rating,purple nutsedge; [2],7
same,Nutsedge plant response rating,purple nutsedge; [3],0
same,"Plant response rating, Nutsedge",purple nutsedge; [4],0
same,"Plant response rating, Nutsedge",purple nutsedge; [5],3
same,Nutsedge plant response rating,purple nutsedge; [6],7
same,Nutsedge plant response rating,purple nutsedge; [7],2
same,Nutsedge plant response rating,purple nutsedge; [8],7
